Format in all cases: functional, Homo sapiens
Experiment [1] has as its system H9. As to the kind of experiment: Compound was tested for the cytotoxicity in H-9 cells infected with HIV-IIIB over 7 days.
For experiment [2], the system named is H9. As to the kind of experiment: Compound was tested for the cytotoxicity in H-9 cells infected with HIV-IIIB over 14 days.
Experiment [3] has as its system H9. As to the kind of experiment: Compound was tested for the inhibiting acute infection of H9 cells over 7 days at 1 mM.
Experiment [4] relates to H9. As to the kind of experiment: Compound was tested for the inhibiting acute infection of H9 cells over 14 days 1 mM.
For experiment [5], the system named is H9. As to the kind of experiment: (§1) Compound was tested for the inhibiting acute infection of H9 cells over 7 days at 50 mM.
Experiment [6] concerns H9. Described as §1. This is another data set of the same source.
Experiment [7] concerns H9. In words: Compound was Tested for the inhibiting acute infection of H9 cells over 7 days at 1 mM.
Experiment [8] deals with H9. As to the kind of experiment: Compound was tested for the effective inhibiting acute infection of H9 cells over 7 days at 50 mM.
Experiment [9] concerns H9. In words: Compound was tested for the effective inhibiting acute infection of H9 cells over 7 days at 100 mM.
Experiment [10] relates to H9. As to the kind of experiment: Compound was tested for the cytotoxicity in H-9 cells infected with HIV-IIIB over 9 days.

The values that follow come from ChEMBL document CHEMBL1129467, “Synthesis and HIV inhibition activity of 2',3'-dideoxy-3'-C-hydroxymethyl nucleosides” (1996).

Values joined by “and” are separate entries in the source; they are usually repeats but may differ in a detail not shown here. Identical values can stand only once.

As for `CCCCCCOc1ncnc2c1ncn2[C@@H]1C[C@H](CO)[C@@H](CO)O1`, the values for the P24 concentration in the experiment with H9 [1] and with H9 [2] were 4 ng/mL and 80 ng/mL, respectively.
The like results for `Nc1ncnc2c1ncn2[C@@H]1C[C@H](CO)[C@@H](CO)O1` were, in that order, 10 ng/mL and 80 ng/mL.
The like results for `COc1ncnc2c1ncn2[C@@H]1C[C@H](CO)[C@@H](CO)O1` were, in that order, 5 ng/mL and 80 ng/mL.
On to `COc1ncnc2c1ncn2[C@H]1C[C@H](CO)[C@@H](CO)O1`, for which the P24 concentration in the experiment with H9 [3] is 80 ng/mL; in the experiment on H9 [1] it was 12 ng/mL; in the experiment on H9 [2], 6 ng/mL.
Consider `CCCCCCOc1ncnc2c1ncn2[C@H]1C[C@H](CO)[C@@H](CO)O1`, for which the P24 concentration in the experiment on H9 [4] is 90 ng/mL; in the experiment with H9 [3], 2 ng/mL; in the experiment with H9 [1] it was 1 ng/mL; with H9 [5] it was 1 ng/mL and 3 ng/mL; in the experiment on H9 [2], 80 ng/mL.
As for `OC[C@H]1C[C@@H](n2cnc3cncnc32)O[C@@H]1CO`, the P24 concentration is 14 ng/mL in the experiment on H9 [6]; 90 ng/mL with H9 [4]; 6 ng/mL in the experiment on H9 [3]; 12 ng/mL in the experiment with H9 [1]; 90 ng/mL in the experiment on H9 [5]; 80 ng/mL in the experiment with H9 [2].
Take `Nc1ncnc2c1ncn2[C@H]1C[C@H](CO)[C@@H](CO)O1`: the P24 concentration was 90 ng/mL with H9 [4]; 6 ng/mL with H9 [7]; 0.5 ng/mL in the experiment with H9 [1]; 0.5 ng/mL and 1 ng/mL with H9 [5]; 2 ng/mL in the experiment on H9 [2]; 100 ng/mL with H9 [8]. This compound displayed a P24 concentration in the experiment with H9 [9] of 0.1 ng/mL.
Regarding `OC[C@H]1C[C@@H](n2cnc3c(Cl)ncnc32)O[C@@H]1CO`, the P24 concentration stood at 2 ng/mL in the experiment on H9 [1] and 80 ng/mL in the experiment with H9 [2].
For `OC[C@H]1C[C@H](n2cnc3c(Cl)ncnc32)O[C@@H]1CO` the same measures were 2 ng/mL and 80 ng/mL.
The like results for `OC[C@H]1C[C@H](n2cnc3cncnc32)O[C@@H]1CO` were, in that order, 8 ng/mL and 80 ng/mL.
Consider `Cc1cn([C@H]2C[C@H](N=[N+]=[N-])[C@@H](CO)O2)c(=O)[nH]c1=O` [ZIDOVUDINE], for which the P24 concentration in the experiment with H9 [1] is 100 ng/mL; in the experiment with H9 [10], 600 ng/mL.
